Data published in patent publication US7671047B2, “Cationically substituted diphenylazetidinones, process for their preparation, medicaments comprising these compounds, and their use” (Sanofi-Aventis Deutschland GmbH, priority 2002, dated 2010).

System: uptake of 14C-cholesterol by the liver (cholesterol absorption)
Assay: Cholesterol absorption test: uptake of 14C-cholesterol by the liver after peroral test meal
Assay type: in vivo, NMRI mice
Settings: dose at which uptake of 14C-cholesterol by the liver was halved (50%) vs control group; test substance given perorally immediately prior to test meal; mouse
Text: Effect of the Compounds of the Invention on Cholesterol Absorption and ^3H-taurocholic Acid Excretion Using Fecal Excrement of Mice, Rats or Hamsters
NMRI mice, Wistar rats, or Golden Syrian hamsters (in groups of n=4-6) were kept in metabolic cages, where they were fed with a standard diet (Altromin, Lage (Lippe)). The afternoon prior to the administration of the radioactive tracers (^14C-cholesterol), the feed was removed and the animals were adapted to grates.
Additionally, the animals were labeled s.c. with ^3H-TCA (taurocholic acid) (for example 1 μCi/mouse up to 5 μCi/rat) 24 hours prior to the peroral administration of the test meal (^14C-cholesterol in Intralipid® 20, Pharmacia-Upjohn).
Cholesterol absorption test: 0.25 ml/mouse Intralipid® 20 (Pharmacia-Upjohn) ((spiked with 0.25 μCi of ^14C-cholesterol in 0.1 mg of cholesterol) was administered perorally by gavage.
Test substances were prepared separately in 0.5% methylcellulose (Sigma)/5% Solutol (BASF, Ludwigshafen) or a suitable vehicle.
The administration volume of the test substance was 0.5 ml/mouse. The test substance was administered immediately prior to the test meal (Intralipid labeled with ^14C-cholesterol) (cholesterol absorption test).
The feces were collected over a period of 24 h: fecal elimination of ^14C-cholesterol and ^3H-taurocholic acid (TCA) was determined after 24 hours.
The livers were removed and homogenized, and aliquots were incinerated in an oximate (Model 307, Packard) to determine the amount of ^14C-cholesterol which had been taken up/absorbed.
The amount of ^14C-cholesterol taken up by the liver was based on the administered dose. The ED50 values were interpolated from a dose-effect curve as the dose at which the uptake of ^14C-cholesterol by the liver was halved (50%), based on a control group.

In order of falling “ED50 (liver)” value:
1. COc1ccc(C2C(CCC(O)c3ccc(F)cc3)C(=O)N2c2ccc(CNC(=O)CCCCCCCCCCC[N+]34CCN(CC3)CC4)cc2)cc1.O=C([O-])C(F)(F)F (centres unmarked) [XI, 1-[11-{4-[3-[3-(4-Fluorophenyl)-3-hydroxypropyl]-2-(4-methoxyphenyl)-4-oxoazetidin-1-yl]benzylcarbamoyl}undecyl)-4-aza-1-azoniabicyclo[2.2.2]octane trifluoroacetate]  0.3 mg/mouse
2. N=C(N)c1ccc(C2C(CCC(O)c3ccc(F)cc3)C(=O)N2c2ccc(F)cc2)cc1 (centres unmarked) [II, 4-{1-(4-Fluorophenyl)-3-[3-(4-fluorophenyl)-3-hydroxypropyl]-4-oxoazetidin-2-yl}benzamidine]  0.1 mg/mouse
3. O=C(CCCCCCCCCCC[N+]12CCN(CC1)CC2)NCc1ccc(C2C(CCC(O)c3ccc(F)cc3)C(=O)N2c2ccc(F)cc2)cc1.O=C([O-])C(F)(F)F (centres unmarked) [IX, 1-[11-(4-{1-(4-Fluorophenyl)-3-[3-(4-fluorophenyl)-3-hydroxypropyl]-4-oxoazetidin-2-yl}benzylcarbamoyl)undecyl]-4-aza-1-azoniabicyclo[2.2.2]octane trifluoroacetate]  0.1 mg/mouse
4. O=C(CCCCC[N+]12CCN(CC1)CC2)NCc1ccc(C2C(CCC(O)c3ccc(F)cc3)C(=O)N2c2ccc(F)cc2)cc1.O=C([O-])C(F)(F)F (centres unmarked) [VII]  0.1 mg/mouse

In the case of `O=C(CCCCCCCCCCC[N+]12CCN(CC1)CC2)NCc1ccc(N2C(=O)C(CCC(O)c3ccccc3)C2c2ccccc2)cc1.O=C([O-])C(F)(F)F` (centres unmarked) [X, 1-[11-{4-[3-(3-Hydroxy-3-phenylpropyl)-2-oxo-4-phenylazetidin-1-yl]benzylcarbamoyl}undecyl)-4-aza-1-azoniabicyclo[2.2.2]octane trifluoroacetate], the “ED50 (liver)” value is reported as less than 1.0 mg/mouse.
